We go through eleven molecules from patent publication US20150344466A1 (SUMITOMO CHEMICAL COMPANY, LIMITED, priority 2013, published 2015).

A value given as a limit tells only on which side of the number the result lay.

What all share (format): in vivo
The subject of one assay is Blattella germanica. Description: Knockdown spray test on Blattella germanica, 0.1% w/v oil formulation (Test Example 2). The following applies: topical, 0.25 h, active ingredient 0.1% w/v, 1.5 ml sprayed, within 15 minutes, read-out: knockdown rate of the test insects within 15 minutes. The method, then:
Ten Blattella germanica (5 males and 5 females) were released in a test container (8.75 cm in diameter, 7.5 cm in height, and the bottom made of 16 mesh metallic wire) with the inner wall on which butter was applied, and the container was placed on the bottom of a test chamber (bottom: 46 cm×46 cm, height: 70 cm). From a height of 60 cm above the upper surface of the container, 1.5 ml of the test drug solution was sprayed using a spray gun (a spraying pressure of 0.42 kg/cm^2). Thirty seconds after spraying, the container was taken out from the test chamber, and after 2 minutes, 5 minutes and 15 minutes, the number of knocked-down insects was counted to obtain a knockdown rate. The knockdown rate was calculated by the following equation.
Knockdown Rate (%)=(Number of Knocked-down Insects/Number of Tested Insects)×100

The next assay has as its system Culex pipiens pallens. The assay can be described thus: Knockdown spray test on adult Culex pipiens pallens (Test Example 4). The following applies: topical, 0.25 h, active ingredient 0.1% w/v, 0.5 ml sprayed, within 15 minutes, read-out: knockdown rate of the test insects within 15 minutes. In outline:
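Knockdown counts were taken 2, 5 and 15 min after spraying and expressed as percent of the 10 adults tested. For the spray, 0.5 ml of solution was applied by spray gun (0.4 kg/cm^2) from 30 cm above a gauze-covered cup in a test chamber; the cup was taken out right after spraying.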

For a further assay, the system named is Musca domestica. The assay can be described thus: Filter paper/sucrose bait death rate test on Musca domestica (Test Example 5). As to conditions: female imagoes of Musca domestica, 0.7 ml on filter paper, after 24 hours. As to the method: A filter paper having a diameter of 5.5 cm was spread on the bottom of a polyethylene cup having the same diameter and 0.7 ml of the test drug solution was added dropwise onto the filter paper, and 30 mg of sucrose was uniformly placed as bait.
Into the polyethylene cup, 10 female imagoes of Musca domestica were released, and the cup was sealed with a lid. After 24 hours, the life and death of Musca domestica was examined, and the death rate was calculated. The death rate was calculated by the following equation.
Death rate (%)=(Number of dead insects/Number of tested insects)×100

With `COc1cccc(COCc2cc(C(=O)NCC3CCOC3)no2)c1` (stereo not drawn) [(84), N-(tetrahydrofuran-3-ylmethyl)-5-(3-methoxybenzyloxymethyl) isoxazole-3-carboxamide], the pest or weed control at 0.1 % strength in the assay on Blattella germanica and in the assay on Culex pipiens pallens was no less than 80% each time. Also, the pest or weed control at 500 ppm in the assay with Musca domestica was no less than 90%.

For the molecule `O=C(NCC1CCOC1)c1cc(COCc2cccc(COCc3ccccc3)c2)on1` (stereo not drawn) [(121), N-(tetrahydrofuran-3-ylmethyl)-5-(3-benzyloxymethylbenzyloxymethyl)isoxazole-3-carboxamide], the pest or weed control at 0.1 % strength in the assay with Blattella germanica and in the assay with Culex pipiens pallens was no less than 80% each time. In the assay with Musca domestica, this molecule came in with a pest or weed control at 500 ppm of no less than 90%.

As to `O=C(NCC1CCOCC1)c1cc(COc2cccc(F)c2)on1` [(195), N-(tetrahydropyran-4-ylmethyl)-5-(3-fluorophenoxymethyl)isoxazole-3-carboxamide], the pest or weed control at 0.1 % strength in the assay with Blattella germanica and in the assay on Culex pipiens pallens was no less than 80% each time. The pest or weed control at 500 ppm with Musca domestica is no less than 90%.

With `O=C(NCC1CCOC1)c1cc(COCc2cc(F)cc(F)c2)on1` (stereo not drawn) [(266), 14-(tetrahydrofuran-3-ylmethyl)-5-(3,5-difluorobenzyloxymethyl)isoxazole-3-carboxamide], the pest or weed control at 0.1 % strength in the assay with Blattella germanica and in the assay with Culex pipiens pallens was no less than 80% throughout. In the assay on Musca domestica, the pest or weed control at 500 ppm is no less than 90%.

As to `O=C(NCC1CCOC1)c1cc(COCc2cc(F)c(F)c(F)c2)on1` (stereo not drawn) [(267), N-(tetrahydrofuran-3-ylmethyl)-5-(3,4,5-trifluorobenzyloxymethyl)isoxazole-3-carboxamide], the pest or weed control at 0.1 % strength in the assay with Blattella germanica and in the assay with Culex pipiens pallens was no less than 80% in each case. This molecule also registered a pest or weed control at 500 ppm in the assay on Musca domestica of no less than 90%.

As to `O=C(NCC1CCOC1)c1cc(COCc2cc(F)cc(Cl)c2)on1` (stereo not drawn) [(268), N-(tetrahydrofuran-3-ylmethyl)-5-(3-chloro-5-fluorobenzyloxymethyl)isoxazole-3-carboxamide], the pest or weed control at 0.1 % strength with Blattella germanica and in the assay with Culex pipiens pallens was no less than 80% throughout. This molecule had a pest or weed control at 500 ppm in the assay on Musca domestica of no less than 90%.

Consider `O=C(NCC1CCOC1)c1cc(COCc2ccc(F)c(F)c2F)on1` (stereo not drawn) [(270), N-(tetrahydrofuran-3-ylmethyl)-5-(2,3,4-trifluorobenzyloxymethyl)isoxazole-3-carboxamide], for which the pest or weed control at 0.1 % strength in the assay with Blattella germanica and in the assay on Culex pipiens pallens was no less than 80% each time. For the same molecule, the pest or weed control at 500 ppm with Musca domestica is no less than 90%.

In the case of `O=C(NCC1CCOC1)c1cc(COCc2cccc(F)c2F)on1` (stereo not drawn) [(274), N-(tetrahydrofuran-3-ylmethyl)-5-(2,3-difluorobenzyloxymethyl)isoxazole-3-carboxamide], the pest or weed control at 0.1 % strength in the assay on Blattella germanica and in the assay with Culex pipiens pallens was no less than 80% in each case. The molecule further showed a pest or weed control at 500 ppm with Musca domestica of no less than 90%.

For the molecule `O=C(NCC1CCOC1)c1cc(COCc2ccc(F)cc2F)on1` (stereo not drawn) [(278), N-(tetrahydrofuran-3-ylmethyl)-5-(2,4-difluorobenzyloxymethyl)isoxazole-3-carboxamide], the pest or weed control at 0.1 % strength in the assay on Blattella germanica and with Culex pipiens pallens was no less than 80% throughout. The pest or weed control at 500 ppm in the assay with Musca domestica was no less than 90%.

As to `Cc1c(C(=O)NCC2CCOC2)noc1COCc1ccccc1F` (stereo not drawn) [(286), N-(tetrahydrofuran-3-ylmethyl)-5-(2-fluorobenzyloxymethyl)-4-methylisoxazole-3-carboxamide], the pest or weed control at 0.1 % strength in the assay on Blattella germanica and with Culex pipiens pallens was no less than 80% each time. In the assay on Musca domestica, this molecule yielded a pest or weed control at 500 ppm of no less than 90%.

For `O=C(NCC1CCOC1)c1cc(Cc2cc(F)cc(F)c2)on1` (stereo not drawn) [(305), N-(tetrahydrofuran-3-ylmethyl)-5-(3,5-difluorobenzyl)isoxazole-3-carboxamide], the pest or weed control at 0.1 % strength in the assay on Blattella germanica and in the assay on Culex pipiens pallens was no less than 80% throughout. In the assay on Musca domestica, this molecule had a pest or weed control at 500 ppm of no less than 90%.
